{"source": "ChEMBL document CHEMBL4732091", "about": "“Design, synthesis and biological evaluation of novel thiosemicarbazone-indole derivatives targeting prostate cancer cells” (Eur J Med Chem, 2021)", "key": {"[1]": {"experiment": "Toxicity in C57BL/6 mouse assessed as effect on liver at 2 mg/kg, IG measured after 2 weeks by hematoxylin and eosin staining based imaging analysis", "assay_type": "organism-based", "details": "in vivo, po, 336 h"}, "PC-3 [2]": {"system": "PC-3", "experiment": "Induction of apoptosis in human PC-3 cells assessed as necrotic cells at 25 nM measured after 72 hrs by Annexin V-FITC/propidium iodide staining based flow cytometry method (reference value: 1.2 %)", "assay_type": "functional"}, "DU-145 [3]": {"system": "DU-145", "experiment": "Activation of MAPK signaling in human DU-145 cells assessed as increase in phosphorylated ERK 1/2 (Thr 202/Tyr 204) at 125 to 500 nM measured by Western blot assay", "assay_type": "cell-based", "details": "filed as activator, dose 125-500 nM"}, "PC-3 [4]": {"system": "PC-3", "experiment": "Induction of apoptosis in human PC-3 cells assessed as nuclear fragmentation at 25 to 100 nM measured after 72 hrs by Hoechst staining based fluorescence microscope method", "assay_type": "functional, cell-based", "details": "dose 25-100 nM"}, "PC-3 [5]": {"system": "PC-3", "experiment": "Activation of MAPK signaling in human PC-3 cells assessed as increase in phosphorylated p38 (Thr 180/Tyr 182) at 125 to 500 nM measured by Western blot assay", "assay_type": "cell-based", "details": "filed as activator, dose 125-500 nM"}, "PC-3 [6]": {"system": "PC-3", "experiment": "Induction of apoptosis in human PC-3 cells assessed as necrotic cells at 100 nM measured after 72 hrs by Annexin V-FITC/propidium iodide staining based flow cytometry method (reference value: 1.2 %)", "assay_type": "functional"}, "DU-145 [7]": {"system": "DU-145", "experiment": "Cytotoxicity against human DU-145 cells assessed as cell viability pre-treated with SB203580 for 4 hrs followed by compound treatment and measured after 72 hrs by MTT assay", "assay_type": "functional, cell-based"}, "PC-3 [8]": {"system": "PC-3", "experiment": "Induction of apoptosis in human PC-3 cells assessed as early apoptotic cells at 25 nM measured after 72 hrs by Annexin V-FITC/propidium iodide staining based flow cytometry method (reference value: 0.452 %)", "assay_type": "functional"}, "DU-145 [9]": {"system": "DU-145", "experiment": "Antiproliferative activity against human DU-145 cells assessed as reduction in colony formation at 0.25 to 1 uM measured after 6 days by crystal violet staining based colony assay", "assay_type": "functional, cell-based", "details": "dose 0.25-1 µM, time 6.0 day"}, "PC-3 [10]": {"system": "PC-3", "experiment": "Antitumour activity against human PC-3 cells xenografted in BALB/c-NU mouse assessed as reduction in tumour growth at 12.5 mg/kg, IG qd measured after 21 days relative to control", "assay_type": "functional", "set-up": "scale not given: the % may be the effect or the level left", "details": "time 21 day"}, "DU-145 [11]": {"system": "DU-145", "experiment": "Induction of apoptosis in human DU-145 cells assessed as cell rounding at 0.5 to 2 uM measured after 72 hrs by Hoechst staining based fluorescence method", "assay_type": "functional", "details": "dose 0.5-2 µM"}, "PC-3 [12]": {"system": "PC-3", "experiment": "Induction of ROS generation in human PC-3 cells assessed as intracellular ROS level at 250 nM pretreated with NAC followed by compound treatment measured after 48 hrs by DCFH-DA staining based flowcytometry method (reference value: 49.9 %)", "assay_type": "functional"}, "DU-145 [13]": {"system": "DU-145", "experiment": "Induction of apoptosis in human DU-145 cells assessed as early apoptotic cells at 2 uM measured after 72 hrs by Annexin V-FITC/propidium iodide staining based flow cytometry method (reference value: 0.835 %)", "assay_type": "functional"}, "PC-3 [14]": {"system": "PC-3", "experiment": "Induction of apoptosis in human PC-3 cells assessed as increased cleaved caspase 9/3 expression at 25 to 100 nM measured by Western blot assay", "assay_type": "functional, cell-based", "details": "dose 25-100 nM"}, "[15]": {"experiment": "Toxicity in C57BL/6 mouse assessed as change in body weight at 2 mg/kg, IG measured after 2 weeks", "assay_type": "organism-based", "details": "in vivo, po, 336 h"}, "DU-145 [16]": {"system": "DU-145", "experiment": "Induction of apoptosis in human DU-145 cells assessed as increase in Bax expression at 0.5 to 2 uM measured by Western blot assay", "assay_type": "functional, cell-based", "details": "dose 0.5-2 µM"}, "DU-145 [17]": {"system": "DU-145", "experiment": "Induction of ROS generation in human DU-145 cells assessed as intracellular ROS level at 1.5 uM measured after 48 hrs by DCFH-DA staining based flowcytometry method (reference value: 52 %)", "assay_type": "functional"}, "DU-145 [18]": {"system": "DU-145", "experiment": "Induction of apoptosis in human DU-145 cells assessed as necrotic cells at 2 uM measured after 72 hrs by Annexin V-FITC/propidium iodide staining based flow cytometry method (reference value: 1.13 %)", "assay_type": "functional"}, "PC-3 [19]": {"system": "PC-3", "experiment": "Induction of apoptosis in human PC-3 cells assessed as viable cells at 50 nM measured after 72 hrs by Annexin V-FITC/propidium iodide staining based flow cytometry method (reference value: 97.2 %)", "assay_type": "functional", "details": "read-out: Activity"}, "DU-145 [20]": {"system": "DU-145", "experiment": "Antiproliferative activity against human DU-145 cell line cells assessed as inhibition of cell proliferation measured after 72 hrs by MTT assay", "assay_type": "functional, cell-based", "details": "DU-145, 72 h"}}, "note": "Calls of active or inactive are those of the source. The calls are words filed in the database; no cut-off is given here.", "data": [{"smiles": "Cc1ccc(/C=N/NC(=S)Nc2ccc(C(=O)NCCc3c(C)[nH]c4ccccc34)cc2)nc1", "values": [{"measurement": "Activity", "setting": "[1]", "value": "Non-Toxic"}, {"measurement": "Activity", "setting": "PC-3 [2]", "value": 2.06, "unit": "%"}, {"measurement": "Activity", "setting": "DU-145 [3]", "value": "Active"}, {"measurement": "Activity", "setting": "PC-3 [4]", "value": "Active"}, {"measurement": "Activity", "setting": "PC-3 [5]", "value": "Active"}, {"measurement": "Activity", "setting": "PC-3 [6]", "value": 9.14, "unit": "%"}, {"measurement": "inhibition", "setting": "DU-145 [7]", "value": "inactive"}, {"measurement": "Activity", "setting": "PC-3 [8]", "value": 2.32, "unit": "%"}, {"measurement": "inhibition", "setting": "DU-145 [9]", "value": "Active"}, {"measurement": "Activity", "setting": "PC-3 [10]", "value": 53.6, "unit": "%"}, {"measurement": "Activity", "setting": "DU-145 [11]", "value": "Active"}, {"measurement": "Activity", "setting": "PC-3 [12]", "value": 74.5, "unit": "%"}, {"measurement": "Activity", "setting": "DU-145 [13]", "value": 10.5, "unit": "%"}, {"measurement": "Activity", "setting": "PC-3 [14]", "value": "Active"}, {"measurement": "Activity", "setting": "[15]", "value": "Non-Toxic"}, {"measurement": "Activity", "setting": "DU-145 [16]", "value": "Active"}, {"measurement": "Activity", "setting": "DU-145 [17]", "value": 71.3, "unit": "%"}, {"measurement": "Activity", "setting": "DU-145 [18]", "value": 7.23, "unit": "%"}, {"measurement": "viability at 0.05 µM", "setting": "PC-3 [19]", "value": 64, "unit": "%"}, {"measurement": "IC50", "setting": "DU-145 [20]", "value": 1.44, "unit": "µM"}]}]}
